{"source": "patent US20090117563A1", "about": "“Identification of TRPML3 (MCOLN3) as a Salty Taste Receptor and Use in Assays for Identifying Taste (Salty) Modulators and/or Therapeutics that Modulate Sodium Transport, Absorption or Excretion and/or Aldosterone and/or Vasopressin Production or Release” (priority 2007, published 2009)", "biological_target": "T1, A419P TRPML3 (Homo sapiens, UniProt Q8TDD5, A419P)", "T1 construct": "expressed in transfected cells", "T1 sequence (Q8TDD5 1-553 A419P)": "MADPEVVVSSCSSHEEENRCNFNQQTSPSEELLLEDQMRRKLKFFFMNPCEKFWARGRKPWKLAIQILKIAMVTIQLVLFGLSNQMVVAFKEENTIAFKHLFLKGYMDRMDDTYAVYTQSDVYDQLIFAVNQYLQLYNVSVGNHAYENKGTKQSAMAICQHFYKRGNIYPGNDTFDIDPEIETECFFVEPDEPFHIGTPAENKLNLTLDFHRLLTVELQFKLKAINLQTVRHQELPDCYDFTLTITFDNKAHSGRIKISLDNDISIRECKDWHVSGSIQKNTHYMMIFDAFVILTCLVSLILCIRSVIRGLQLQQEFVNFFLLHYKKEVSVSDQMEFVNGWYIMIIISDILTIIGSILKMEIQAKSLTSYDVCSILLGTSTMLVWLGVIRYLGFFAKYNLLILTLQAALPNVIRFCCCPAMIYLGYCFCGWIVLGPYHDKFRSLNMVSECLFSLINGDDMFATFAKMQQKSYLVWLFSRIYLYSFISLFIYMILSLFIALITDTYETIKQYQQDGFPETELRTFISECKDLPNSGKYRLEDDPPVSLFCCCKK", "test": "Whole cell voltage clamp, A419P TRPML3 stably expressed in CHO cells", "assay_type": "cell-based", "conditions": "1 mM GdCl3 compared to buffer alone", "from_the_text": "The whole cell voltage clamp technique is an electrophysiology method that measures the macroscopic electrical current flowing across the entire plasma membrane though protein channels. Live mammalian cells are placed in a special microscope chamber containing extracellular solution. Guided by a micromanipulator and under visual control, a small diameter glass pipette filled with an electrically conductive salt solution is first attached to the cell membrane using gentle negative pressure resulting in a high resistance gigaOhm seal. The membrane patch within the pipette is disrupted using further suction resulting in the whole cell patch clamp configuration. The whole cell patch clamp configuration allows the combined measurement of all ion channels proteins within the membrane or macroscopic current. Using the patch clamp amplifier in combination with the whole-cell patch clamp configuration allows the operator to control the voltage, or potential difference across the entire cell membrane, as well as the both the internal and external ionic composition of the cell. […]"}
{"molecule": "[Cl][Gd]([Cl])[Cl]", "note": "[gadolinium, gadolinium chloride]", "values": [{"measurement": "effect on inward current", "setting": "listed as Gadolinium chloride", "result": "blocked"}, {"measurement": "effect on inward current", "setting": "listed as GdCl3", "result": "decrease in inward current"}]}
